Source: patent US20190091175A1, “METHOD OF REDUCTION […] TREATING DRAVET SYNDROME” (ZOGENIX INTERNATIONAL LIMITED, priority 2017, published 2019)

Assays:
[1] = tested on: subjects with Dravet syndrome; assay: Study 1: Phase 3 double-blind placebo-controlled study of liquid fenfluramine formulation (ZX008) in Dravet syndrome; type: in vivo, human
Experimental: The first 119 subjects to be randomized in both identical studies combined were analyzed and reported as Study 1 (FIG. 1), covered by a Statistical Analysis Plan (SAP).
Primary and key secondary endpoints in the Study 1 SAP were pre-determined. All patients were treated twice per day over a period of 14 weeks using an oral syringe to administer the formulation. The treatment period included a two-week titration period and a 12-week maintenance period.
The initial results of Study 1 are outlined below. The randomized, double blind, placebo controlled, Phase 3 study enrolled 119 patients across sites in the United States, Canada, Europe and Australia. The median age of patients was 8 years, the mean age of patients was 9 years (range, 2-18 years) (FIG. 2).
Patients were titrated to their target dose over two weeks, and then remained at that fixed dose for 12 weeks. The mean baseline convulsive seizure frequency across the study groups was approximately 40 seizures per month. 110 (92%) patients completed the study (85% 0.8 mg/kg/day; 100% 0.2 mg/kg/day; 93% placebo).
The mean number of convulsive seizure free days, defined as a day for which diary data are available and no convulsive seizures have been reported, was determined for each treatment group during the Baseline and T+M Periods. Using a parametric analysis, comparisons for the ZX008 groups to placebo were estimated from an ANCOVA model with treatment group (3 levels) and age group (<6 years, ≥6 years) as factors, log baseline number of convulsive seizure free days as a covariate and log convulsive seizure free days (Titration+Maintenance, or Maintenance Period) as response. The mean (SD) number of convulsive seizure free days per 28 days during the Baseline Period was 12.6 (7.68), 15.7 (6.80), and 14.6 (7.59) for the placebo, 0.2 and 0.8 mg/kg/day groups, respectively. […] The mean (SD) number of convulsive seizure free days for the 0.2 mg/kg/day group was 17.9 (8.04) days, which was numerically greater than placebo, but was not statistically significant (p=0.514). […]

[2] = tested on: self-induced photosensitive seizures; conditions: four cases; cited from earlier work
[3] = tested on: pattern sensitivity-induced seizures; conditions: one child; cited from earlier work
[4] = tested on: children with refractory epilepsy; conditions: 0.5 to 1 mg/kg/day; cited from earlier work
[5] = tested on: patients with Dravet syndrome; conditions: long-term fenfluramine treatment; cited from earlier work

## CCNC(C)Cc1cccc(C(F)(F)F)c1 (racemic) [Fenfluramine, (RS)-N-ethyl-1-[3-(trifluoromethyl)phenyl]propan-2-amine]
[1]; 0.8 mg/kg/day group
  subjects with an adverse event leading to study termination / discontinuation: Five
[1]; oral, 0.2 and 0.8 mg/kg/day, 14 weeks
  tolerability: generally well-tolerated
[1]; throughout the study
  prospective cardiac safety monitoring (clinical, echocardiographic): no clinical or echocardiographic evidence of cardiac valvulopathy or pulmonary hypertension
[2]
  response of self-induced photosensitive seizures: responded to treatment
[3]
  effect on self-induced seizures resistant to anticonvulsive treatment: successfully terminated these self-induced seizures
[4]
  effect on number of seizures: reduction in the number of seizures
[5]
  heart valve defects by echocardiography: No clinically relevant defects were identified
